The record followed here is ChEMBL document CHEMBL2163249, “Exploration of natural compounds as sources of new bifunctional scaffolds targeting cholinesterases and beta amyloid aggregation: the case of chelerythrine” (Bioorg Med Chem, 2012).

The target in experiment [1] is Acetylcholinesterase (Electrophorus electricus) (UniProt O42275). As to conditions: at 2 mg/mL.
Description: Inhibition of electric eel AChE at 2 mg/ml by Ellman's method
The target of experiment [2] is Cholinesterase (Equus caballus) (UniProt P81908). Conditions: at 2 mg/mL.
Cholinesterase (Equus caballus), sequence (P81908 whole entry): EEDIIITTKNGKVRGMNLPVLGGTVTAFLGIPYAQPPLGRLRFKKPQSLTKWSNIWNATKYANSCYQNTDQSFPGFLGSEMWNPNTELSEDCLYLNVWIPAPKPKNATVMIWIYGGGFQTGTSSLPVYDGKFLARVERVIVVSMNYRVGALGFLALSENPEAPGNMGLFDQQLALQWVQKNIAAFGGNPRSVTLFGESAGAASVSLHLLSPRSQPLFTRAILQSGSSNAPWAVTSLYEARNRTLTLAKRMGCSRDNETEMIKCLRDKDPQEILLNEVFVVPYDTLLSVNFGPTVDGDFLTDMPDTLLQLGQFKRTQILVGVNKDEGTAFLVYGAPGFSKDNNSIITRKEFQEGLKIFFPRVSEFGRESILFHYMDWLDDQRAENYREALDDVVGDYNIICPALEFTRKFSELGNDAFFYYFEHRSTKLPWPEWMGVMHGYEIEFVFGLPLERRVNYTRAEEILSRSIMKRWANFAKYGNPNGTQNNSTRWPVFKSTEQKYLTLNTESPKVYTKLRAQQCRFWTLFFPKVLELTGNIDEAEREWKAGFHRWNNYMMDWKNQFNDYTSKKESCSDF
Description: Inhibition of horse BChE at 2 mg/ml by Ellman's method

Acetylcholinesterase (Electrophorus electricus), sequence (O42275 24-633 limits assumed): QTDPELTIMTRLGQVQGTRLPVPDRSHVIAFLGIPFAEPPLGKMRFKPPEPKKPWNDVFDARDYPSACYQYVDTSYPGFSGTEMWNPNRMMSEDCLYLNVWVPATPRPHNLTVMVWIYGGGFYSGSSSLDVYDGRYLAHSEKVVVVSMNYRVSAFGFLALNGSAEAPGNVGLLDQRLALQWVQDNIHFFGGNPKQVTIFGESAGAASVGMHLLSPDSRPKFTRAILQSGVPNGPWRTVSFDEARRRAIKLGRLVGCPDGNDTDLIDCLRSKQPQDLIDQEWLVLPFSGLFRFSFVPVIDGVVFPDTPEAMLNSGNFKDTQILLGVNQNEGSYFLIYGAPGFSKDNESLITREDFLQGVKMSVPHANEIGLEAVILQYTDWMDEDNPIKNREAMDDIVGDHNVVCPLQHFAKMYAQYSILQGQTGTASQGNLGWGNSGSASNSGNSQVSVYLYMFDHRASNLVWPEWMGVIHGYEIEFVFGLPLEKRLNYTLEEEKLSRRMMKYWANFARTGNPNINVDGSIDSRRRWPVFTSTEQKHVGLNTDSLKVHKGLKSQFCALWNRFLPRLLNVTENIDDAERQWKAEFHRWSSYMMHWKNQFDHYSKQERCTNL

In general, inhibition refers to the relative decrease from the control value, in per cent. `COc1cccc2c1C(=O)c1c(O)c3c(c(O)c1C2=O)C[C@@](O)(C(=O)CO)C[C@@H]3O[C@H]1C[C@H](N)[C@H](O)[C@H](C)O1`: the inhibition in experiment [1] is 10.4%; in experiment [2], 1.2%.
As to `C[C@H]1CCC[C@@H](O)CCCCCc2cc(O)cc(O)c2C(=O)O1`, the inhibition in experiment [1] is -1.34%; in experiment [2], -4.26%.
On the same counts, the results for `O=C1c2cccc(O)c2C(=O)c2c(O)cc(CO)cc21` are 14.6% and -0.88%.
As for `CC[C@@H]1/C=C/C=C/C[C@H](C)[C@H](O)[C@](C)(O)C(=O)[C@H](C)[C@@H](O)[C@H](C)C(=O)[C@H](C)[C@@H](O)[C@H](C)/C=C/C(=O)O[C@H]2[C@@H](C)[C@@H](CC1)O[C@@]1(CC[C@@H](C)[C@@H](C[C@H](C)O)O1)[C@@H]2C`, the inhibition was -5.62% in experiment [1] and 1.56% in experiment [2].
The matching figures for `COc1ccc2c(c1OC)C(=O)OC2C1c2c(cc3c(c2OC)OCO3)CCN1C` (racemic): -5.54% and 3.34%.
The matching figures for `C=C(C)[C@H]1Cc2c(ccc3c2O[C@@H]2COc4cc(OC)c(OC)cc4[C@@H]2C3=O)O1`: 16.4% and 6.43%.
`CC[C@@H]1C(=O)OC[C@@H]1Cc1cncn1C`: the inhibition in experiment [1] is 20%; in experiment [2] it was 1.99%.
On the same counts, the results for `C/C=C1\CN2CC[C@]34C(=C(CC=O)[C@H]1C[C@H]23)Nc1ccccc14` are 21.1% and 12%.
On the same counts, the results for `CN1CCc2cc(O)c(O)cc2C1Cc1ccc(O)c(O)c1` (stereo not given) are 28.1% and 24.1%.
On the same counts, the results for `C[C@H]1CCCC(=O)CCC/C=C/c2cc(O)cc(O)c2C(=O)O1` are 1.81% and -1.04%.
Regarding `COc1cc(-c2oc3cc(O)cc(O)c3c(=O)c2O[C@@H]2O[C@H](CO)[C@@H](O)[C@H](O)[C@H]2O)ccc1O`, the inhibition in experiment [1] is 30.6%; in experiment [2], 1.08%.
On the same counts, the results for `Cc1cc(O)c2c(c1)C(=O)c1cc(O)cc(O)c1C2=O` are 24.3% and 1.03%.
On the same counts, the results for `O=[N+]([O-])c1ncc[nH]1` are 4.77% and 14.4%.
The matching figures for `CC1=C[C@]23C(=O)[C@@H](C=C(CO)[C@@H](O)[C@]2(O)[C@H]1O)[C@H]1[C@@H](C[C@H]3C)C1(C)C`: -4.51% and -1.75%.
Turning to `COc1cc(-c2oc3cc(O)cc(O)c3c(=O)c2OC2O[C@H](CO[C@@H]3O[C@@H](C)[C@H](O)[C@@H](O)[C@H]3O)[C@@H](O)[C@H](O)[C@H]2O)ccc1O` (stereo not given in full), the inhibition turned out to be 24.8% in experiment [1] and 0.75% in experiment [2].
Turning to `C=C[C@]12CN(C)[C@@H]3[C@H]4CO[C@H](C[C@H]41)[C@]1(C(=O)Nc4ccccc41)[C@@H]32`, the inhibition turned out to be 6.89% in experiment [1] and 31.1% in experiment [2].
For `C[C@@H]1O[C@@H](O[C@H]2[C@H](Oc3cc(O)c4c(c3)O[C@H](c3ccc(O)cc3)CC4=O)O[C@H](CO)[C@@H](O)[C@@H]2O)[C@H](O)[C@H](O)[C@H]1O`, the inhibition is -3.38% in experiment [1] and -5.49% in experiment [2].
The matching figures for `O=C1C=C2C=C[C@@H]3C[C@@]2(O1)[C@H]1CCCCN31`: 7.44% and 6.85%.
On to `C[C@@H]1O[C@@H](O[C@H]2C(Oc3cc(O)c4c(=O)c(O)c(-c5ccc(O)cc5)oc4c3)O[C@H](CO)[C@@H](O)[C@@H]2O)[C@H](O)[C@H](O)[C@H]1O` (stereo not given in full), for which the inhibition in experiment [1] is 24.5%; in experiment [2], -4.78%.
On the same counts, the results for `CCCCCCCCCCCCCC(=O)O[C@@H]1[C@@H](C)[C@@]2(O)[C@@H](C=C(CO)C[C@]3(O)C(=O)C(C)=C[C@@H]23)[C@@H]2C(C)(C)[C@]12OC(C)=O` are 19.6% and -6.35%.
The matching figures for `CC(C)(O)[C@@H]1[C@H]2OC(=O)[C@@H]1[C@]1(O)C[C@H]3O[C@]34C(=O)O[C@H]2[C@]14C`: 22.6% and 1.96%.
On the same counts, the results for `C[C@@]12C(=O)OC(=O)[C@]1(C)[C@H]1CC[C@@H]2O1` are -7.81% and -2.13%.
In the case of `C[n+]1cccc(C(=O)[O-])c1`, the inhibition is -1.47% in experiment [1] and -5.02% in experiment [2].
As for `CCC[C@@H]1C[C@@H](C(=O)N[C@@H]([C@H]2O[C@H](SC)[C@H](O)[C@@H](O)[C@H]2O)[C@@H](C)O)N(C)C1`, the results for the inhibition in experiment [1] and in experiment [2] were -3.63% and -2.36%, respectively.
On the same counts, the results for `C/C=C(/C)C(=O)O[C@H]1C(C)=C2[C@H]([C@@H]1OC(=O)CCCCCCC)[C@@](C)(OC(C)=O)C[C@H](OC(=O)CCC)[C@@]1(O)[C@H]2OC(=O)[C@@]1(C)O` are 9.89% and 0.82%.
The matching figures for `COc1cc(-c2oc3cc(O)cc(O)c3c(=O)c2O)ccc1O`: 5.76% and -2.06%.
On the same counts, the results for `O=C(O)c1cc(N(Cc2ccccc2O)Cc2ccccc2O)ccc1O` are 2.48% and 1.67%.
In the case of `CN1[C@@H](CC(=O)c2ccccc2)CCC[C@H]1C[C@H](O)c1ccccc1`, the inhibition in experiment [1] is -0.17%; in experiment [2], 30.4%.
The matching figures for `CO[C@@H]1[C@H](O)C[C@@H](O[C@@H]2C[C@H](Oc3cc4cc5c(c(O)c4c(O)c3C)C(=O)[C@@H](O[C@H]3C[C@@H](O[C@H]4C[C@@H](O[C@H]6C[C@](C)(O)[C@@H](OC(C)=O)[C@H](C)O6)[C@H](O)[C@@H](C)O4)[C@H](O)[C@@H](C)O3)[C@H]([C@H](OC)C(=O)[C@@H](O)[C@@H](C)O)C5)O[C@H](C)[C@@H]2OC(C)=O)O[C@@H]1C`: 5.47% and 3.95%.
The matching figures for `C[C@@H]1O[C@@H](OC[C@H]2O[C@@H](Oc3c(-c4ccc(O)c(O)c4)oc4cc(O)cc(O)c4c3=O)[C@H](O)[C@@H](O)[C@@H]2O)[C@H](O)[C@H](O)[C@H]1O`: -0.25% and 4.32%.
As for `C[C@H]1CC[C@@H]2[C@@H](C)[C@H]3[C@H](C[C@H]4[C@@H]5CC[C@H]6C[C@@H](O)CC[C@]6(C)[C@H]5CC[C@]34C)N2C1`, the inhibition in experiment [1] worked out at 5.43%; in experiment [2] it was 41.9%.
As for `O=c1cc(-c2ccc(O)cc2)oc2cc(O)c([C@@H]3O[C@H](CO)[C@@H](O)[C@H](O)[C@H]3O)c(O)c12`, the values for the inhibition in experiment [1] and in experiment [2] were 20.7% and 1.98%, respectively.
The matching figures for `C[N+]1([O-])[C@@H]2C[C@H](OC(=O)[C@H](CO)c3ccccc3)C[C@@H]1[C@H]1O[C@H]12` (stereo not given in full): -6.51% and -1.85%.
`O=C1/C(=C/c2ccc(O)c(O)c2)Oc2cc(O)ccc21`: the inhibition was 24.4% in experiment [1] and -2.22% in experiment [2].
The matching figures for `O=C1C[C@@H](c2ccc(O)cc2)Oc2cc(O[C@@H]3O[C@H](CO)[C@@H](O)[C@H](O)[C@H]3O)cc(O)c21`: 18.7% and -1.72%.
Take `COc1ccc(-c2coc3cc(O)cc(O)c3c2=O)cc1`: the inhibition in experiment [1] is 2.29%; in experiment [2] it was -9.1%.
The matching figures for `O=C(O)c1cc(N(Cc2ccccc2O)Cc2cc(O)ccc2O)ccc1O`: 2.35% and 17.7%.
The matching figures for `C[C@@]12CCc3occc3[C@H]1CC[C@@]13C[C@@H](CC[C@H]12)[C@@](O)(CO)C3`: -1.43% and 13.8%.
On to `C=C[C@H]1CN2CC[C@H]1C[C@@H]2[C@@H](O)c1ccnc2ccccc12`, for which the inhibition in experiment [1] was 5.94%; in experiment [2] it was 9.07%.
The matching figures for `CC1=C2C(=CO[C@H](C)[C@H]2C)C(O)=C(C(=O)O)C1=O`: 3.11% and 11.3%.
On the same counts, the results for `CCCCCCC(=O)CCCCCC/C=C/C[C@@H](O)[C@H](O)[C@@](N)(CO)C(=O)O` are -8.15% and 1.5%.
`CC(C)(S)[C@H](N)C(=O)O`: the inhibition in experiment [1] was 11.7%; in experiment [2], -6.36%.
On the same counts, the results for `C[C@@H]1CC[C@]2(NC1)O[C@H]1C[C@H]3[C@@H]4CC=C5C[C@@H](O)CC[C@]5(C)[C@H]4CC[C@]3(C)[C@H]1[C@@H]2C` are 1.63% and 53.7%.
Turning to `Cc1c2ccncc2c(C)c2c1[nH]c1ccccc12`, the inhibition in experiment [1] was -1.87%; in experiment [2], 44.1%.
In the case of `C=C(C)[C@@H]1CC=C(C(=O)O)CC1`, the figures for the inhibition in experiment [1] and in experiment [2] were -3.9% and 3.58%, respectively.
The matching figures for `CC[C@H]1[C@@H]2C[C@H]3[C@@H]4N(C)c5ccccc5[C@]45C[C@@H]([C@@H]2[C@H]5O)N3[C@@H]1O`: 29.8% and 22.3%.
The matching figures for `COc1ccc2c3c4n(c2c1)[C@H](C=C(C)C)OOC(C)(C)C[C@@H]4N1C(=O)[C@@H]2CCCN2C(=O)[C@]1(O)[C@H]3O`: 1.5% and 18%.
On the same counts, the results for `CC(=O)O[C@@H]1CC[C@@]2(C)[C@H](C1)[C@H](OC(C)=O)C[C@@H]1[C@@H]2C[C@H]2[C@@H]3CN4C[C@H](C)CC[C@H]4[C@H](C)[C@H]3CC[C@@]12O` are 26.8% and 4.14%.
Turning to `COc1cc(O)c(C(=O)/C=C/c2ccccc2)c(OC)c1`, the values for the inhibition in experiment [1] and in experiment [2] were 27.1% and 4.56%, respectively.
On the same counts, the results for `CN1CCc2cc(O)c(O)cc2C1Cc1cc(O)c(O)cc1Br` (racemic) are 27.2% and 13.4%.
The matching figures for `COc1cc(C(=O)OC2CC3CCC(C2)N3C)ccc1O` (stereo not given): 31.5% and 6.73%.
On the same counts, the results for `CC(C)=CC[C@@H](OC(=O)C=C(C)C)C1=CC(=O)c2c(O)ccc(O)c2C1=O` are 22.8% and 6.03%.
For the compound `CC(C)=CCC[C@]1(C)C=Cc2c(O)c3c(c(CC=C(C)C)c2O1)O[C@]12C(=C[C@@H]4C[C@H]1C(C)(C)O[C@@]2(C/C=C(/C)C(=O)O)C4=O)C3=O`, the inhibition in experiment [1] stood at 1.17%; in experiment [2], 8.47%.
The matching figures for `CCCCC[C@H](O)CC(=O)CCc1ccc(O)c(OC)c1`: 1.06% and -2.06%.
On the same counts, the results for `CN1[C@H]2C[C@H](OC(=O)[C@H](CO)c3ccccc3)C[C@@H]1[C@@H](O)C2` are 9.43% and 8.08%.
